Data on 1 compound can be found in patent publication US6407096B1, “Benzene fused heterocyclic derivatives having thromboxane A2 receptor antagonistic activity and prostaglandin I2 Agonistic activity and application thereof” (Toray Industries, Inc., priority 1998, dated 2002).

pIC50, pKi: −log10 of the molar value.

Data set [1] relates to platelet-rich plasma (PRP), platelet aggregation induced by TXA2 agonist U-46619. In words: Platelet aggregation inhibiting action 1 (U-46619-induced aggregation in PRP). It is filed as cell-based. To be noted: human PRP, aggregation induced by U-46619 (final 1 to 4 μM), compound added 1 minute before. The procedure:
The blood collected from the human medial cubital vein was centrifuged at 800 rpm for 10 minutes, and the upper portion was collected as platelet-rich plasma (PRP). PRP was dispensed to small test tubes, and TXA2 agonist U-46619 was added thereto (the final concentration 1 to 4 μM) to induce platelet aggregation. The degree of platelet aggregation was measured as a change in turbidity by a platelet aggregation measuring device (Hematracer 1, Nikko Bioscience). Each compound was added 1 minute before the addition of U-46619, and a concentration at which aggregation was 50% inhibited was calculated as a IC50 value.

In a further data set the target is T1, PGI2 receptor (Homo sapiens, UniProt P43119).
T1 construct: 0.1 mg protein/ml of platelet membrane fraction suspension (100 μl) at 4° C. for 60 minutes; from tissue; host or cells: platelets (membrane fraction)
T1 sequence (P43119 whole entry): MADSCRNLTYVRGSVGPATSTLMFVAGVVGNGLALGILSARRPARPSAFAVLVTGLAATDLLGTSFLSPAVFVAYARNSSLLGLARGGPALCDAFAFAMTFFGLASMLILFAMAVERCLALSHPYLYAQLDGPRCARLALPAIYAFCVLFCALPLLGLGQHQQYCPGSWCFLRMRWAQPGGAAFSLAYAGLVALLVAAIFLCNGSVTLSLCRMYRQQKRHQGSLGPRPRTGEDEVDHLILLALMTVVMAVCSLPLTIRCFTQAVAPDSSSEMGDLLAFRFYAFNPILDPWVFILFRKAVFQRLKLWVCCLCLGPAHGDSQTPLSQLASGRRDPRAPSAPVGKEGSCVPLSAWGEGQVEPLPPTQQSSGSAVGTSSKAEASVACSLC
As to the kind of experiment: PGI2 receptor binding experiment (tritium-labeled compound A, platelet membrane fraction). To be noted: tritium-labeled compound A 10 nM, 4° C., 60 minutes, read-out: PGI2 receptor affinity Ki. The procedure: As a PGI2 receptor ligand, tritium-labeled (1R, 2R, 3aS, 8bS)-2,3,3a,8b-tetrahydro-2-hydroxy-1-[(E)-(3S, 4S)-3-hydroxy-4-methyl-1-octene-6-ynyl]-1H-cyclopenta [b]benzofuran-4-butanoic acid (compound A) was used. A saturation test was conducted by reaction of compound A (100 μl) at a final concentration of 3 to 100 nM and 0.1 mg protein/ml of platelet membrane fraction suspension (100 μl) at 4° C. for 60 minutes under shaking. Competitive experiment was carried out by reaction of a mixed solution (100 μl) of a test compound dissolved in an appropriate solvent and diluted and compound A at a final concentration of 10 nM, and 0.1 mg protein/ml of platelet membrane fraction suspension (100 μl) at 4° C. for 60 minutes under shaking. After the completion of reaction, the membrane fraction was recovered on a glass filter by a cell harvester, and washed with an ice-cold buffer. Then, radioactivity was measured by a scintillation counter. Nonspecific binding to a substance other than the receptor was determined by reaction in the presence of beraprost sodium at a final concentration of […]. In the competitive experiment, IC50 value and Hill coefficient of each of test compounds were determined by pseudo-Hill plots, and the receptor dissociation constant (Ki value) was determined from the IC50 value and the receptor dissociation constant (Kd value) of compound A, which was obtained by saturation experiment, according to the following equation:
Ki value=IC50 value/[1+(radioactive ligand concentration/Kd value)]

The target in another data set is T2, TXA2 receptor (Homo sapiens, UniProt P21731).
T2 construct: The finally obtained sediment was used as a platelet membrane fraction; from tissue; host or cells: human platelets (membrane fraction from venous blood)
T2 sequence (P21731 1-343): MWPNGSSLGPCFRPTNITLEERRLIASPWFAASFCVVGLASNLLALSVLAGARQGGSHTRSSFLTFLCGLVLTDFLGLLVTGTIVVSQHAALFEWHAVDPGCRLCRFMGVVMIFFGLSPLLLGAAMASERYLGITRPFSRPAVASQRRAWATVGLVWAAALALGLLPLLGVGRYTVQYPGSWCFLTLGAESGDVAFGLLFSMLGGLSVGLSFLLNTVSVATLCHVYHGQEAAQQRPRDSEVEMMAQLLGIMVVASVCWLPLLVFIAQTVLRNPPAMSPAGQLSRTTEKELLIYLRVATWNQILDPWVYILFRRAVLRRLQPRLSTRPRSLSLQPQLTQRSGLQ
As to the kind of experiment: TXA2 receptor binding test ([3H]SQ29548, platelet membrane fraction). The conditions noted are these: [3H]SQ29548 10 nM, 25° C., 30 minutes, read-out: TXA2 receptor affinity Ki. The procedure: The blood collected from the human antebrachial vein and 1/10 volume of ACD solution (85 mM trisodium citrate, 65 mM citric acid, 2% glucose) were mixed, and 8 ml of the mixture was dispensed to each of Spitz tubes. The platelet-rich plasma obtained by centrifugation at room temperature and 200×g for 10 minutes was further centrifuged at 1000×g for 15 minutes to obtain platelets. The thus-obtained platelets were centrifugally washed with a cleaning buffer (115 mM sodium chloride, 4.3 mM potassium dihydrogen phosphate, 5.5 mM glucose, 1 mM disodium EDTA, 10 μM […], pH 6.5), and 1 ml of a dissolution buffer (10 mM tris(hydroxymethyl)aminomethane, 5 mM magnesium chloride, 2 mM disodium EDTA, pH 7.4) was added to-the platelets, followed by three times of freezing in liquid nitrogen and melting at room temperature to crush the platelets. The crushed platelets were cleaned by three times of ultracentrifugation (40000×g, 20 minutes each) using […] ice-cold tris-hydrochloric acid buffer. The finally obtained sediment was used as a platelet membrane fraction.
As a TXA2 receptor ligand, tritium-labeled SQ29548 ([^3H]SQ29548) was used. As a solvent for receptor binding reaction, a 50 mM tris-hydrochloric acid buffer ([…] magnesium chloride, pH 7.4) was used. A saturation test was conducted by reaction of [^3H]SQ29548 (100 μl) at a final concentration of 3 to 100 nM and 0.1 mg protein/ml of platelet membrane fraction suspension (100 μl) at 25° C. for 30 minutes under shaking. […] Then, radioactivity was measured by a scintillation counter. Nonspecific binding to a substance other than the receptor was determined by reaction in the presence of SQ29548 at a final concentration of […]. In the competitive experiment, IC50 value and Hill coefficient of each of the test compounds were determined by pseudo-Hill plots, and the receptor dissociation constant (Ki value) was determined from the IC50 value and the receptor dissociation constant (Kd value) of [^3H]SQ29548, which was obtained by saturation experiment, according to the following equation: […]

For data set [2], the system named is platelet-rich plasma (PRP), platelet aggregation induced by ADP. As to the kind of experiment: Platelet aggregation inhibiting action 2 (ADP-induced aggregation in PRP). The class given is cell-based. The conditions noted are these: human PRP, aggregation induced by ADP (final 1 to 10 μM), compound added 1 minute before. The protocol:
The blood collected from the human medial cubital vein was centrifuged 800 rpm for 10 minutes, and the upper portion was collected as platelet-rich plasma (PRP). PRP was dispensed to small test tubes, and ADP was added thereto (the final concentration 1 to 10 μM) to induce platelet aggregation. The degree of platelet aggregation was measured as a change in turbidity by a platelet aggregation measuring device (Hematracer 1, Nikko Bioscience). Each compound was added 1 minute before the addition of ADP, and a concentration at which aggregation was 50% inhibited was calculated as IC50 value.

Turning to `O=C(O)COc1cccc2c1OCC2CCSC(c1ccccc1)c1ccccc1` (centres unmarked) [Example 36, (3-(2-(diphenylmethylthio)ethyl)-2,3-dihydrobenzofuran-7-yloxy)acetic acid], the melting point (in general, the temperature, or range, at which the solid turns liquid) lay in the range of 88 to 89 °C. The negative-log IC50 (pIC50) (as a rule, −log10 of the IC50, conventionally taken in molar units) in data set [1] is 6.26. Moreover, the negative-log Ki (pKi) (usually the negative decadic logarithm of the Ki, by convention in mol/L) at PGI2 receptor is 6.64. Further, the pKi at TXA2 receptor is 7.15. The compound also showed a negative-log IC50 (pIC50) in data set [2] of 6.02.
